Where two headings read alike, the source gives them in different places.

What all share (type): cell-based
One experiment addresses T1, STING WT variant (Homo sapiens, UniProt Q86WV6).
T1 construct: host or cells: HEK-Blue ISG KO-STING cells (Invivogen, hkb-kostg)
Put plainly: SEAP reporter assay in HEK-Blue ISG KO-STING cells transfected with STING WT variant (Method 1). As to conditions: 24 h, SEAP signal vs 0.5% DMSO. From the text:
(§1) Activation of STING can be determined using a SEAP reporter assay in HEK-Blue™ ISG KO-STING cells (Invivogen, cat #hkb-kostg) transfected with plasmids expressing STING variants (WT & HAQ) (referred to WO2017/175147A1). STING variants (WT & HAQ) vector were constructed based on STING-232H vector (Origene, RC208418). GFP vector (VT2069) was bought from Youbio. The detailed protocol as follows: HEK-Blue™ ISG KO-STING cells were harvest and seeding into 96 well plate, the final cell number was 0.8×10^5 cells/well. Transfections were prepared using Lipofectamine 2000 (Invitrogen, Cat #11668-027) following the manufacturer's instructions (Lipo2000/DNA=1/10), 20 ul of transfection suspension containing 1 ng STING vector was added to cell culture plate and incubated at 37° C., 5% CO2 for 24 hours. After 24 hours' incubation, compounds were added at proper concentration, and the final DMSO concentration was 0.5%. After 24 h incubation, the supernatant was collected to detect SEAP signal using Great EscAPe SEAP chemiluminescence KIT (Clontech, cat #631738) and cells were collected to detect cell viability using CellTiter-Glo Luminescent Cell Viability Assay (Promega, cat #G7573) following the manufacturer's instructions. The data were described by the ratio of the stimulating signal of compounds to 0.5% DMSO.
(In general: Reporter assays use an easily measured gene product as a stand-in for the process of interest.)

The target of a further experiment is T2, STING HAQ variant (Homo sapiens, UniProt Q86WV6, G230A/R293Q/R71H).
T2 construct: host or cells: HEK-Blue ISG KO-STING cells (Invivogen, hkb-kostg)
T2 sequence (Q86WV6 whole entry R71H/G230A/R293Q): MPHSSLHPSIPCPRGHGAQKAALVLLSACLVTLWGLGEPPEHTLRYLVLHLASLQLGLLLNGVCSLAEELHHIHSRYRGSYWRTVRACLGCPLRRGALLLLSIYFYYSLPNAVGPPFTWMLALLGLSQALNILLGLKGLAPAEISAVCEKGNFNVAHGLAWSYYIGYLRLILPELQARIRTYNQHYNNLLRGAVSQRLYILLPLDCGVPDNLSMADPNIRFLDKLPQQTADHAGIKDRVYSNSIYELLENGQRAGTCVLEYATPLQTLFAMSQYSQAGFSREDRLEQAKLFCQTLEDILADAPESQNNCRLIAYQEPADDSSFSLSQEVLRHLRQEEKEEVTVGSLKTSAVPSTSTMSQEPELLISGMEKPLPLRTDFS
Put plainly: SEAP reporter assay in HEK-Blue ISG KO-STING cells transfected with STING HAQ variant (Method 1). As to conditions: 24 h, SEAP signal vs 0.5% DMSO.
Excerpt: as §1

The next experiment has as its target STING (Homo sapiens, UniProt Q86WV6). Description: IFN-β secretion from THP1 by STING activation (hIFNβ ELISA). The protocol: In this assay, activation of STING by compounds was evaluated by detecting their ability to stimulate the secretion of IFN-β (interferon-beta) from THP1. THP1 was purchased from National Collection of Authenticated Cell Cultures (Cat #TCHu 57). The top dose of compounds was setted according to their solubility. First, Compounds were 3 times diluted with medium, 8-dose points in total. The final DMSO concentration was 0.2%. THP1 during the logarithmic phase was resuspended to 2×10^6 cells/ml in assay medium. The THP1-cell suspension was dispensed into a 96-well U bottom plate containing 50 ul of compound diluted in medium. After 24 h incubation at 37° C., 5% CO2, the supernatant was collected. The concentration of IFN-β in the supernatant was measured using a human IFNβ ELISA KIT (R&D, DY814-05). The data was fitted with GraphPad Prism or XLfit to calculate EC50 values.

[1] abbreviates: 1 ng STING vector, compound 2.5 uM.
[2] abbreviates: 1 ng STING vector, compound 5 uM.
Setting [3] is: THP1 cells; 24 h incubation; IFN-β in supernatant; top dose set according to solubility.
The mark [4] stands for this setting: THP1 cells; 24 h incubation; IFN-β in supernatant; top dose set according to solubility; read-out: hIFNβ ELISA (EC50).

STING, sequence (Q86WV6 whole entry): as the sequence (Q86WV6 whole entry R71H/G230A/R293Q) above, with H71R, A230G, Q293R counted along it

With `CCn1nc(C)cc1C(=O)Nc1nc2cc(C(N)=O)cc(OCC[C@@H](O)CO)c2n1CCC[C@H]1COc2cc(C(N)=O)cc3nc(NC(=O)c4cc(C)nn4CC)n1c23` [Example 38, (S)-3-(3-(5-carbamoyl-7-((R)-3,4-dihydroxybutoxy)-2-(1-ethyl-3-methyl-1H-pyrazole-5-carboxamido)-1H-benzo[d]imidazol-1-yl)propyl)-2-(1-ethyl-3-methyl-1H-pyrazole-5-carboxamido)-3,4-dihydro-5-oxa-1,2a-diazaacenaphthylene-7-carboxamide], the “Fold change related to DMSO control WT” value on STING WT variant (setting [1]) came to 2.15. On STING HAQ variant (setting [2]), the “Fold change related to DMSO control HAQ” value was determined as 18.05. Further, at STING (setting [3]), the “hIFNβ ELISA (EC50, μM)” value is “inactive”.
By EC50 is commonly meant the concentration needed to bring the measured effect to its halfway point. On to `CCn1nc(C)cc1C(=O)Nc1nc2cc(C(N)=O)cc(OCCCN(C)C(=O)CN3CCOCC3)c2n1CCC[C@H]1COc2cc(C(N)=O)cc3nc(NC(=O)c4cc(C)nn4CC)n1c23` [Example 29, (S)-3-(3-(5-carbamoyl-2-(1-ethyl-3-methyl-1H-pyrazole-5-carboxamido)-7-(3-(N-methyl-2-morpholinoacetamido)propoxy)-1H-benzo[d]imidazol-1-yl)propyl)-2-(1-ethyl-3-methyl-1H-pyrazole-5-carboxamido)-3,4-dihydro-5-oxa-1,2a-diazaacenaphthylene-7-carboxamide], for which the “Fold change related to DMSO control WT” value at STING WT variant (setting [1]) was found to be 1.99. The “Fold change related to DMSO control HAQ” value on STING HAQ variant (setting [2]) was 27.10. Besides, the EC50 at STING (setting [4]) is 6.7 µM.
The corresponding values for `CCn1nc(C)cc1C(=O)Nc1nc2cc(C(N)=O)cc(OCCCNC(=O)CN3CCNCC3)c2n1CCC[C@H]1COc2cc(C(N)=O)cc3nc(NC(=O)c4cc(C)nn4CC)n1c23` [Example 34, (S)-3-(3-(6-carbamoyl-2-(1-ethyl-3-methyl-1H-pyrazole-5-carboxamido)-4-(3-(2-(piperazin-1-yl)acetamido)propoxy)-1H-benzo[d]imidazol-1-yl)propyl)-2-(1-ethyl-3-methyl-1H-pyrazole-5-carboxamido)-3,4-dihydro-5-oxa-1,2a-diazaacenaphthylene-7-carboxamide] are 1.51, 6.51 and 9.1 µM.
For the compound `CCn1nc(C)cc1C(=O)Nc1nc2cc(C(N)=O)cc(OCCCN)c2n1CCC[C@H]1COc2cc(C(N)=O)cc3nc(NC(=O)c4cc(C)nn4CC)n1c23.Cl` [Example 14, (S)-3-(3-(7-(3-aminopropoxy)-5-carbamoyl-2-(1-ethyl-3-methyl-1H-pyrazole-5-carboxamido)-1H-benzo[d]imidazol-1-yl)propyl)-2-(1-ethyl-3-methyl-1H-pyrazole-5-carboxamido)-3,4-dihydro-5-oxa-1,2a-diazaacenaphthylene-7-carboxamide], the “Fold change related to DMSO control WT” value at STING WT variant (setting [1]) came to 2.17. Moreover, at STING HAQ variant (setting [2]), the “Fold change related to DMSO control HAQ” value is reported as 16.68. The EC50 at STING (read-out: hIFNβ ELISA (EC50); THP1 cells; 24 h incubation; IFN-β in supernatant; top dose set according to solubility) was greater than 13.7 µM.
For `CCn1nc(C)cc1C(=O)Nc1nc2cc(C(N)=O)cc(OCCCOC)c2n1CCC[C@H]1COc2cc(C(N)=O)cc3nc(NC(=O)c4c(Br)c(C)nn4CC)n1c23` [Example 9, (S)-2-(4-bromo-1-ethyl-3-methyl-1H-pyrazole-5-carboxamido)-3-(3-(5-carbamoyl-2-(1-ethyl-3-methyl-1H-pyrazole-5-carboxamido)-7-(3-methoxypropoxy)-1H-benzo[d]imidazol-1-yl)propyl)-3,4-dihydro-5-oxa-1,2a-diazaacenaphthylene-7-carboxamide], the “Fold change related to DMSO control WT” value on STING WT variant (setting [1]) stood at 2.27. At STING HAQ variant (setting [2]), the “Fold change related to DMSO control HAQ” value was 14.14. Also, on STING (setting [4]), the EC50 amounted to 2.6 µM.
In the case of `CCn1nc(C)cc1C(=O)Nc1nc2cc(C(N)=O)cc(OCCCOC)c2n1CCC[C@@H]1COc2cc(C(N)=O)cc3nc(NC(=O)c4cc(C)nn4CC)n1c23` [Example 2, (R)-3-(3-(5-Carbamoyl-2-(1-ethyl-3-methyl-1H-pyrazole-5-carboxamido)-7-(3-methoxypropoxy)-1H-benzo[d]imidazol-1-yl)propyl)-2-(1-ethyl-3-methyl-1H-pyrazole-5-carboxamido)-3,4-dihydro-5-oxa-1,2a-diazaacenaphthylene-7-carboxamide], the “Fold change related to DMSO control WT” value on STING WT variant (compound 15.65 uM) turned out to be 1.99. Further, the “Fold change related to DMSO control HAQ” value at STING HAQ variant (compound 15.65 uM) stood at 2.52. Further, the “hIFNβ ELISA (EC50, μM)” value at STING (setting [3]) is “inactive”.
Take `CCn1nc(C)cc1C(=O)Nc1nc2cc(C(N)=O)cc(OC)c2n1CCC[C@@H]1COc2cc(C(N)=O)cc3nc(NC(=O)c4cc(C)nn4CC)n1c23` [Example 4, (R)-3-(3-(5-Carbamoyl-2-(1-ethyl-3-methyl-1H-pyrazole-5-carboxamido)-7-methoxy-1H-benzo[d]imidazol-1-yl)propyl)-2-(1-ethyl-3-methyl-1H-pyrazole-5-carboxamido)-3,4-dihydro-5-oxa-1,2a-diazaacenaphthylene-7-carboxamide]: at STING WT variant (compound 26.8 uM), the “Fold change related to DMSO control WT” value amounted to 2.22. Besides, the “Fold change related to DMSO control HAQ” value at STING HAQ variant (compound 26.8 uM) came out at 10.21. Moreover, the “hIFNβ ELISA (EC50, μM)” value at STING (setting [3]) is “inactive”.
On to `CCn1nc(C)cc1C(=O)Nc1nc2cc(C(N)=O)cc(OCCCNC(=O)CN3CCOCC3)c2n1CCC[C@H]1COc2cc(C(N)=O)cc3nc(NC(=O)c4cc(C)nn4CC)n1c23` [Example 21, (S)-3-(3-(5-carbamoyl-2-(1-ethyl-3-methyl-1H-pyrazole-5-carboxamido)-7-(3-(2-morpholinoacetamido)propoxy)-1H-benzo[d]imidazol-1-yl)propyl)-2-(1-ethyl-3-methyl-1H-pyrazole-5-carboxamido)-3,4-dihydro-5-oxa-1,2a-diazaacenaphthylene-7-carboxamide], for which the “Fold change related to DMSO control WT” value at STING WT variant (setting [1]) came to 2.38. Also, the “Fold change related to DMSO control HAQ” value at STING HAQ variant (setting [2]) is given as 40.44. In addition, the EC50 at STING (setting [4]) came to 1.4 µM.
On to `CCn1nc(C)cc1C(=O)Nc1nc2cc(C(N)=O)cc(OC)c2n1CCC[C@H]1COc2cc(C(N)=O)cc3nc(NC(=O)c4cc(C)nn4CC)n1c23` [Example 5, (S)-3-(3-(5-carbamoyl-2-(1-ethyl-3-methyl-1H-pyrazole-5-carboxamido)-7-methoxy-1H-benzo[d]imidazol-1-yl)propyl)-2-(1-ethyl-3-methyl-1H-pyrazole-5-carboxamido)-3,4-dihydro-5-oxa-1,2a-diazaacenaphthylene-7-carboxamide], for which the “Fold change related to DMSO control WT” value at STING WT variant (compound 22.1 uM) was determined as 1.41. Also, on STING HAQ variant (compound 22.1 uM), the “Fold change related to DMSO control HAQ” value turned out to be 22.85. For the same compound, the EC50 on STING (setting [4]) turned out to be 3.7 µM.
In the case of `CCn1nc(C)cc1C(=O)Nc1nc2cc(C(N)=O)cc(OCCCNC(=O)CN(C)C)c2n1CCC[C@H]1COc2cc(C#N)cc3nc(NC(=O)c4cc(C)nn4CC)n1c23` [Example 15, (S)-1-(3-(7-cyano-2-(1-ethyl-3-methyl-1H-pyrazole-5-carboxamido)-3,4-dihydro-5-oxa-1,2a-diazaacenaphthylen-3-yl)propyl)-7-(3-(2-(dimethylamino)acetamido)propoxy)-2-(1-ethyl-3-methyl-1H-pyrazole-5-carboxamido)-1H-benzo[d]imidazole-5-carboxamide], the “Fold change related to DMSO control WT” value at STING WT variant (setting [1]) is given as 2.11. In addition, on STING HAQ variant (setting [2]), the “Fold change related to DMSO control HAQ” value is listed as 11.61. The “hIFNβ ELISA (EC50, μM)” value at STING (setting [3]) is “inactive”.
`CCn1nc(C)cc1C(=O)Nc1nc2cc(C(N)=O)cc(OCCCOC)c2n1CCC[C@H]1COc2cc(C#N)cc3nc(NC(=O)c4cc(C)nn4CC)n1c23` [Example 11, (S)-1-(3-(7-cyano-2-(1-ethyl-3-methyl-1H-pyrazole-5-carboxamido)-3,4-dihydro-5-oxa-1,2a-diazaacenaphthylen-3-yl)propyl)-2-(1-ethyl-3-methyl-1H-pyrazole-5-carboxamido)-7-(3-methoxypropoxy)-1H-benzo[d]imidazole-5-carboxamide]: the “Fold change related to DMSO control WT” value on STING WT variant (setting [1]) worked out at 1.83. For the same compound, at STING HAQ variant (setting [2]), the “Fold change related to DMSO control HAQ” value is listed as 27.74.

Values taken from patent US12364702B2, “Highly active sting protein agonist compound” (ADLAI NORTYE BIOPHARMA CO., LTD., priority 2018, dated 2025).
